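48-hour exposure; five concentrations; linearly interpolated endpoints. At the GI50, growth is halved. At the TGI there is no net growth.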
Experiments:
Assay in all cases: DTP human tumour cell line panel, 48 h
NCI-H23 lung = system: NCI-H23 lung
HCT-116 colon = system: HCT-116 colon
EKVX NSCLC = system: EKVX NSCLC
SNB-75 CNS = system: SNB-75 CNS
HS 578T breast = system: HS 578T breast
LOX IMVI melanoma = system: LOX IMVI melanoma
UACC-62 melanoma = system: UACC-62 melanoma
SF-295 CNS = system: SF-295 CNS
RPMI-8226 leukemia = system: RPMI-8226 leukemia
SF-539 CNS = system: SF-539 CNS

Structure (SMILES) | GI50 (NCI-H23 lung) [nM] | TGI (NCI-H23 lung) [µM] | GI50 (HCT-116 colon) [nM] | TGI (HCT-116 colon) [µM] | GI50 (EKVX NSCLC) [nM] | TGI (EKVX NSCLC) [µM] | GI50 (SNB-75 CNS) [nM] | TGI (SNB-75 CNS) [µM] | GI50 (HS 578T breast) [nM] | TGI (HS 578T breast) [µM] | GI50 (LOX IMVI melanoma) [nM] | TGI (LOX IMVI melanoma) [µM] | GI50 (UACC-62 melanoma) [nM] | TGI (UACC-62 melanoma) [µM] | GI50 (SF-295 CNS) [nM] | TGI (SF-295 CNS) [µM] | GI50 (RPMI-8226 leukemia) [nM] | TGI (RPMI-8226 leukemia) [µM] | GI50 (SF-539 CNS) [nM] | TGI (SF-539 CNS) [µM]
Cn1cc(-c2csc(-c3c[nH]c4ncccc34)n2)c2cc(Br)cnc21 | 2800 | > 100 | 2910 | > 100 | 1270 | > 100 | 2180 | 7.35 | 2430 | > 100 | 4260 | > 100 | 3470 | > 100 | 3010 | 18.8 | > 100000 | > 100 | 27700 | > 100
COC1=C(OC)C(=O)C(/C=C(\C)C(=O)O)=C(C)C1=O | > 100000 | > 100 | > 100000 | > 100 | > 100000 | > 100 | 49100 | > 100 | > 100000 | > 100 | > 100000 | > 100 | > 100000 | > 100 | > 100000 | > 100 | > 100000 | > 100 | > 100000 | > 100
c1cncc(CNc2ccccc2-c2nnc(Nc3ccc4c(c3)OCO4)o2)c1 | 66.2 | > 100 | 51.6 | > 100 | 328 | > 100 | 24.6 | > 100 | 97.4 | > 100 | 54.7 | > 100 | 54.2 | > 100 | 52.8 | > 100 | 160 | > 100 | 81.5 | 0.539
C=C1CC[C@@H]2C(C)(C)[C@@H](O)CC[C@@]2(C)[C@@H]1COc1ccc2ccc(=O)oc2c1 | 13800 | 33.8 | 11100 | 28 | 10600 | 25.6 | 10900 | 32.1 | 15400 | 49.5 | 13800 | 27.7 | 10200 | 23.7 | 10500 | 22.9 | 8750 | 65.7 | 14700 | 28.5
O=C(Oc1cccnc1)c1ccccc1Nc1ccnc(C(F)(F)F)c1 | 49 | 1.83 | 34.2 |  | 6150 | 46.4 | > 63400 | > 100 | 4130 | > 100 | 40.6 | > 37.8 | 313 | > 64.6 | 257 | 0.707 | 56.3 | 7.22 | 42.8 | > 100
N#Cc1ccc(Oc2nccc(-c3c(-c4ccc(F)cc4)ncn3C3CCNCC3)n2)cc1 | > 25000 | > 25 | 5450 | > 13.5 | > 25000 | > 25 | > 16000 | > 25 | > 25000 | > 25 | 5850 | > 13.5 | > 25000 | > 25 | 16600 | > 25 | 12100 | > 25 | > 25000 | > 25
CCN1CCN(CCOc2ccc(CNc3ccc4nc(CCC5CCCCC5)[nH]c4c3)cc2)CC1 | 2380 | 6.94 | 1320 | 2.87 | 2250 | 9.15 | 1660 | 4.07 | 1610 | 4.85 | 1710 | 3.15 | 1930 | 3.52 | 1990 | 3.95 | 1430 | 3.79 | 1570 | 3
COc1cccc(Nc2nc(NNC(=O)Cc3ccccc3)nc(NNC(=O)c3ccncc3)n2)c1 | > 100000 | > 100 |  | > 100 | > 100000 | > 100 |  | > 100 | > 100000 | > 100 |  | > 100 | 36000 | > 100 |  | > 100 | > 100000 | > 100 | > 100000 | > 100
C=CCN1C(=O)/C(=c2\sc3n(c2=O)C2C(NN=3)N(CC)C(=O)N2CC)c2ccccc21 (stereo not given) | 880 | > 50.7 | 403 | > 100 | 1390 | > 100 | 254 | 2.98 | 447 | 58.5 | 698 | > 100 | 612 | > 62.1 | 455 | > 33.7 | 657 | > 100 | 346 | 2.87
Nc1nc(N)c2cc(CNc3ccc(Cl)c(Cl)c3)ccc2n1 | 710 | 2.11 | 83.9 | 1.31 | 742 | 2.18 | 1140 | 2.36 | 1340 | 3.02 | 146 | 1.55 | 468 | 1.86 | 419 | 1.69 | 1610 | 3.62 | 825 | 2.13
COc1ccc(Nc2c3ccccc3nc3c2c2ccccc2n3C)cc1 | 34800 | > 100 | 30000 | > 100 | 7910 | 60.3 | > 100000 | > 100 | 46400 | > 100 | 7620 | 47.2 | 11400 | 41.5 | 22300 | > 100 | 3770 | 24.7 | 8780 | 27.5
COc1ccc(CN2c3ccccc3Sc3ccccc32)cc1F | 682 | > 100 | 437 | > 100 | 780 | > 100 | 257 | 98.8 | 458 | > 100 | 798 | > 100 | 516 | > 100 | 323 | > 48.4 | 483 | > 100 | 316 | 5.58
